According to PubChem BioAssay AID256 (DTP/NCI, 2004):
Several values for one entry are separate records, joined by “and”; a condition that tells them apart may be missing. Equal entries are not always repeated. Toxic doses and inconclusive results are not listed. How the source made its calls: active means survival T/C of 150% or more; inactive means T/C below 125% in these data.

System: CD2F1 mice, L1210 leukemia ip, survival T/C
Assay: NCI In Vivo Anticancer Drug Screen. Data for tumor model L1210 Leukemia (intraperitoneal) in CD2F1 (CDF1) mice
Settings: endpoint: mean survival time, higher = longer survival
Summary of the method: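 Tumor-bearing mice (transplanted tumor) were split into treated and vehicle control groups, and the measured endpoint of each treated group was divided by that of its vehicle controls.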

[1] = dose: 75.0 mg/kg/injection, schedule: Q01DX001 (ip), vehicle: saline
[2] = dose: 100.0 mg/kg/injection, schedule: Q01DX001 (ip), vehicle: saline
[3] = dose: 200.0 mg/kg/injection, schedule: Q01DX001 (ip), vehicle: saline
[4] = dose: 400.0 mg/kg/injection, schedule: Q01DX001 (ip), vehicle: saline
[5] = dose: 100.0 mg/kg/injection, schedule: Q04DX003 (ip), vehicle: saline with Tween-80
[6] = dose: 100.0 mg/kg/injection, schedule: Q04DX002 (ip), vehicle: saline with Tween-80
[7] = dose: 200.0 mg/kg/injection, schedule: Q04DX002 (ip), vehicle: saline with Tween-80
[8] = dose: 100.0 mg/kg/injection, schedule: Q01DX001 (ip), vehicle: other
[9] = dose: 200.0 mg/kg/injection, schedule: Q01DX001 (ip), vehicle: other
[10] = dose: 400.0 mg/kg/injection, schedule: Q01DX001 (ip), vehicle: other
[11] = dose: 25.0 mg/kg/injection, schedule: Q04DX003 (ip), vehicle: saline with Tween-80
[12] = dose: 50.0 mg/kg/injection, schedule: Q04DX003 (ip), vehicle: saline with Tween-80
[13] = dose: 200.0 mg/kg/injection, schedule: Q04DX003 (ip), vehicle: saline with Tween-80
[14] = dose: 400.0 mg/kg/injection, schedule: Q04DX003 (ip), vehicle: saline with Tween-80
[15] = dose: 100.0 mg/kg/injection, schedule: Q04DX003 (ip), vehicle: saline sonified
[16] = dose: 100.0 mg/kg/injection, schedule: Q01DX009 (ip), vehicle: saline with Tween-80
[17] = dose: 200.0 mg/kg/injection, schedule: Q01DX009 (ip), vehicle: saline with Tween-80
[18] = dose: 400.0 mg/kg/injection, schedule: Q01DX009 (ip), vehicle: saline with Tween-80
[19] = dose: 25.0 mg/kg/injection, schedule: Q01DX001 (ip), vehicle: saline with Tween-80
[20] = dose: 50.0 mg/kg/injection, schedule: Q01DX001 (ip), vehicle: saline with Tween-80
[21] = dose: 100.0 mg/kg/injection, schedule: Q01DX001 (ip), vehicle: saline with Tween-80
[22] = dose: 100.0 mg/kg/injection, schedule: Q04DX003 (ip), vehicle: Klucel (hydroxypropylcellulose) (HPC)
[23] = dose: 200.0 mg/kg/injection, schedule: Q04DX003 (ip), vehicle: Klucel (hydroxypropylcellulose) (HPC)
[24] = dose: 400.0 mg/kg/injection, schedule: Q04DX003 (ip), vehicle: Klucel (hydroxypropylcellulose) (HPC)
[25] = dose: 25.0 mg/kg/injection, schedule: Q01DX009 (ip), vehicle: saline
[26] = dose: 50.0 mg/kg/injection, schedule: Q01DX009 (ip), vehicle: saline

Measured: T/C

OCCN1CCCCCCC1
inactive: [1] 95 % of control | dose: 150.0 mg/kg/injection, schedule: Q01DX001 (ip), vehicle: saline 102 % of control

O=C(/C=C/c1ccco1)c1cccnc1
inactive: [2] 94 % of control | [3] 100 % of control | [4] 100 % of control

[O]=[Sb]([c]1ccccc1)([c]1ccccc1)[c]1ccccc1
inactive: [5] 101 % of control

CCCCNC(C)(C)C(SSSC(c1ccc(C(F)(F)F)cc1)C(C)(C)NCCCC)c1ccc(C(F)(F)F)cc1 (stereo not given)
inactive: dose: 100.0 mg/kg/injection, schedule: Q04DX003 (ip), vehicle: saline 92 % of control | dose: 200.0 mg/kg/injection, schedule: Q04DX003 (ip), vehicle: saline 94 % of control | dose: 400.0 mg/kg/injection, schedule: Q04DX003 (ip), vehicle: saline 100 % of control

CCCCCCCCCCCCCCOc1ccccc1Cl
inactive: [6] 101 % of control | [7] 101 % of control | dose: 400.0 mg/kg/injection, schedule: Q04DX002 (ip), vehicle: saline with Tween-80 90 % of control

Cc1c2ccncc2c(C)c2c1oc1ccccc12
inactive: [8] 108 % of control | [9] 98 % of control | [10] 95 % of control

CC(=O)NS(=O)(=O)c1ccc([NH-])cc1.CC(=O)NS(=O)(=O)c1ccc([NH-])cc1.[I][Pt+2][I]
inactive: [11] 96 % of control | [12] 94 % of control | [5] 107 % of control | [13] 100 % of control | [14] 103 % of control

CC(=O)/C=C/c1ccc([N+](=O)[O-])cc1
inactive: [15] 102 % of control | dose: 200.0 mg/kg/injection, schedule: Q04DX003 (ip), vehicle: saline sonified 102 % of control | dose: 400.0 mg/kg/injection, schedule: Q04DX003 (ip), vehicle: saline sonified 95 % of control

O=C(NC(=S)Nc1cccc(O)c1)c1cccc(Br)c1
inactive: [16] 96 % of control | [17] 96 % of control | [18] 97 % of control

COc1cc(Cl)ccc1NC(=O)Oc1c(OC)cccc1OC
inactive: [16] 100 % of control | [17] 106 % of control | [18] 103 % of control

CCCCOC(=O)c1ccccc1C(=O)O.[Cu+2]
inactive: dose: 6.25 mg/kg/injection, schedule: Q01DX001 (ip), vehicle: saline with Tween-80 100 % of control | dose: 12.5 mg/kg/injection, schedule: Q01DX001 (ip), vehicle: saline with Tween-80 96 % of control | [19] 103 % of control

Clc1[nH]nc2ccccc12
inactive: dose: 12.5 mg/kg/injection, schedule: Q01DX009 (ip), vehicle: saline with Tween-80 102 % of control | dose: 12.5 mg/kg/injection, schedule: Q04DX003 (ip), vehicle: saline with Tween-80 98 % of control | [19] 90 % of control | dose: 25.0 mg/kg/injection, schedule: Q01DX009 (ip), vehicle: saline with Tween-80 105 % of control | [11] 93 % of control and 97 % of control | [20] 98 % of control | dose: 50.0 mg/kg/injection, schedule: Q01DX009 (ip), vehicle: saline with Tween-80 89 % of control | [12] 101 % of control | [21] 93 % of control | [16] 101 % of control | [5] 98 % of control and 97 % of control | [17] 89 % of control | [13] 100 % of control | [14] 86 % of control

CCC1CN2CCC1CC2C(O)c1cc[n+]([O-])c2ccc(OC)cc12 (stereo not given)
inactive: [22] 98 % of control | [23] 102 % of control | [24] 102 % of control

C=CCON
inactive: [1] 100 % of control

CN1C(=O)C(C(O)(c2ccccc2)c2ccccc2)C1c1ccccc1 (stereo not given)
inactive: dose: 50.0 mg/kg/injection, schedule: Q04DX002 (ip), vehicle: saline with Tween-80 96 % of control | [6] 96 % of control | [7] 96 % of control

CC(=O)OCc1cc(C(C)(C)C)c(O)c(C(C)(C)C)c1
inactive: [22] 101 % of control | [23] 116 % of control | [24] 115 % of control

C=C(Br)CN(CC)C(C)=O
inactive: dose: 12.5 mg/kg/injection, schedule: Q01DX009 (ip), vehicle: saline 102 % of control | dose: 12.5 mg/kg/injection, schedule: Q04DX003 (ip), vehicle: saline 96 % of control | [25] 97 % of control | dose: 25.0 mg/kg/injection, schedule: Q04DX003 (ip), vehicle: saline 95 % of control | [26] 114 % of control | dose: 50.0 mg/kg/injection, schedule: Q04DX003 (ip), vehicle: saline 104 % of control

c1ccc(C2OCC3(CO2)COC(c2ccccc2)OC3)cc1 (stereo not given)
inactive: [16] 88 % of control | [5] 94 % of control | [17] 91 % of control | [13] 92 % of control | [14] 92 % of control

CCCCNC(=O)Nc1ccc(C(=O)OCC(C)C)cc1
inactive: [16] 94 % of control | [5] 108 % of control | [17] 91 % of control | [13] 94 % of control | [18] 90 % of control | [14] 90 % of control

CCOC(=O)C(Cc1ccc(C)cc1)P(=O)(OCC)OCC (stereo not given)
inactive: [2] 102 % of control | [3] 98 % of control | [4] 102 % of control

CCSCCCC(=O)O
inactive: [25] 97 % of control | [26] 93 % of control | dose: 100.0 mg/kg/injection, schedule: Q01DX009 (ip), vehicle: saline 101 % of control | [15] 101 % of control

CCCCCCCCCCCC(=O)NC(=S)Nc1ncccn1
inactive: [8] 93 % of control | dose: 100.0 mg/kg/injection, schedule: Q01DX009 (ip), vehicle: other 91 % of control and 97 % of control | dose: 100.0 mg/kg/injection, schedule: Q04DX002 (ip), vehicle: other 98 % of control | [9] 87 % of control | dose: 200.0 mg/kg/injection, schedule: Q01DX009 (ip), vehicle: other 92 % of control and 93 % of control | dose: 200.0 mg/kg/injection, schedule: Q04DX002 (ip), vehicle: other 102 % of control | [10] 93 % of control | dose: 400.0 mg/kg/injection, schedule: Q01DX009 (ip), vehicle: other 92 % of control and 101 % of control | dose: 400.0 mg/kg/injection, schedule: Q04DX002 (ip), vehicle: other 87 % of control

Nn1cnnc1SCc1ccccc1
inactive: dose: 100.0 mg/kg/injection, schedule: Q04DX003 (ip), vehicle: other 100 % of control | dose: 200.0 mg/kg/injection, schedule: Q04DX003 (ip), vehicle: other 97 % of control | dose: 400.0 mg/kg/injection, schedule: Q04DX003 (ip), vehicle: other 105 % of control

NNc1c(F)ccc(F)c1F
inactive: [19] 100 % of control | [20] 100 % of control | [21] 94 % of control
